Measured values taken from PMC11220827 (Frontiers in Pharmacology, 2024).
Like-named read-outs stand apart in the source and are kept apart here.

Experiments:
[1] = target: T1, human thyroid peroxidase (hTPO) (Homo sapiens, UniProt P07202); conditions: reference
T1 sequence (P07202 19-933): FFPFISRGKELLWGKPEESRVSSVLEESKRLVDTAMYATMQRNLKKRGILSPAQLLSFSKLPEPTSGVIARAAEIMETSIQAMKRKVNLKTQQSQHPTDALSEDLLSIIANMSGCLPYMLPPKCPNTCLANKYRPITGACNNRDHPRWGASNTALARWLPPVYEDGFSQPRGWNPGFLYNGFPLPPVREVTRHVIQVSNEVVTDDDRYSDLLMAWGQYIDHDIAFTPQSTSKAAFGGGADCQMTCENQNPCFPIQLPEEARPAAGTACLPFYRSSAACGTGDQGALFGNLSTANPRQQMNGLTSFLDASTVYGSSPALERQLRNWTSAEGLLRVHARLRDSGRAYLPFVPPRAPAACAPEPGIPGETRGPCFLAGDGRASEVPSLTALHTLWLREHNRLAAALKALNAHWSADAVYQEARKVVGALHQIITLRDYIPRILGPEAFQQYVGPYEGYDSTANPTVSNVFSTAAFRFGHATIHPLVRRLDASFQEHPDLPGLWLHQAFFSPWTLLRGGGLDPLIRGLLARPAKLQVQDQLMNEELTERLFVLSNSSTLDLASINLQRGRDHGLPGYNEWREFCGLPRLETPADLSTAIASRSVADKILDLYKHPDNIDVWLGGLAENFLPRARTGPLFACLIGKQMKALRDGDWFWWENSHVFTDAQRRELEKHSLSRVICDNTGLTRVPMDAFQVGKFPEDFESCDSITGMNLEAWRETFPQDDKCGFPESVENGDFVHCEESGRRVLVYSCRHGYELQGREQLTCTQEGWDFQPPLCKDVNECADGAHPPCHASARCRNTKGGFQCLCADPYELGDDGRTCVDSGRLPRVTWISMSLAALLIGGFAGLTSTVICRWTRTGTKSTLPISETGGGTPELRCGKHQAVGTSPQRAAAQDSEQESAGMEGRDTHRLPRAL
Description: hTPO was derived from Nthy-ori 3-1 cells. Cell lysate containing hTPO in Glycine-NaOH buffer (pH
9.0) was incubated for 30 minutes at 37°C in the presence of serial dilutions of the compounds in
(§1) DMSO (1% compound stock in incubation mixture).
was measured on a Berthold luminometer.
(§2) Preincubation with rat liver S9 fraction
(§3) To assess the effect of metabolism on the activity of the test
compound for these assays, preincubations with rat liver S9 were performed.

[2] = target: T2, TRβ (Homo sapiens, UniProt P10828); conditions: reference
T2 sequence (P10828 1-461): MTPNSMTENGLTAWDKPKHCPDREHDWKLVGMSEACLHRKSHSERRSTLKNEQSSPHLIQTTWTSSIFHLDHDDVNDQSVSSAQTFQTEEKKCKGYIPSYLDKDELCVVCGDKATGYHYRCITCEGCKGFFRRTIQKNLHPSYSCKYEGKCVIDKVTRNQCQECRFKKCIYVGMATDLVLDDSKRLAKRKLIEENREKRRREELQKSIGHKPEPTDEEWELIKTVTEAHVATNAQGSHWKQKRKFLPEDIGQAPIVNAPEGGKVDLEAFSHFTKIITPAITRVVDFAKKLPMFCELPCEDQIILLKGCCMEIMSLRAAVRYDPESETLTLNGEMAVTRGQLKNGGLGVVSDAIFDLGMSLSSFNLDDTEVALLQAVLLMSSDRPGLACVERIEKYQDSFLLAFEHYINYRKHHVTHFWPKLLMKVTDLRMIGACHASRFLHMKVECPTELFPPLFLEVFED
Description: using the U2-OS based CALUX cytotox bioassay. The cytotoxicity of each test chemical was assessed using the U2-OS based cytotoxicity CALUX bioassay. Concentrations causing >20% reduction of luminescence were considered cytotoxic.
cytotoxicity (relative induction in the cytotoxicity CALUX bioassay > 80%) were used for final
evaluation of analysis results.
induction in the cytotox CALUX bioassay > 80%) were used for final evaluation of analysis results.
All analysis results were expressed in molar (M) final in well.
For determination of the (anti-)ERα, (anti-)AR and (anti-)TRβ CALUX activities, CALUX cells were
seeded in assay medium. Following exposure of the CALUX cells to serial dilutions of the
compounds in triplicate for 24 h, the induction of luciferase production was quantified by measuring
luminescence following addition of the substrate luciferin. For antagonist assays, a fixed
concentration of assay agonist was present in each well, to generate a basal signal. On each plate, a
complete calibration curve for each respective bioassay was also analysed using the relevant reference
compounds. For the analyses in the presence of rat liver S9, 0.03% (v/v) of PB/BNF induced rat liver
S9 mix (including NADPH and an NADPH-regenerating system) was added to the cells directly after
addition of the compounds, which remained there for the duration of the exposure period (24 h) (van
(§4) Relative light units (RLUs) of the CALUX assays were analysed as follows. For agonist assays,
(§5) background values (exposure to DMSO only) were subtracted, and the maximum activity of the
(§6) assay’s reference compound was set to 100%. For antagonist assays, the basal signal (exposure to fixed concentration of agonist only) was set to 100%. Activity of the samples was scaled accordingly,
(§7) resulting in expression of the data as “percentage of maximum reference response”. Graphs were
(§8) generated using the statistical software package GraphPad Prism V5.03. Using these graphs, lowest
effect concentrations (LOECs) and PC50 concentrations were determined; LOEC is defined as the […]

[3] = tested on: H295R cells; conditions: reference: Forskolin (↑), prochloraz (↓)
Description: as §1
was measured on a Berthold luminometer.
(§9) Serial dilutions of the compounds were incubated in Tris -buffer (pH 8.0) overnight at 4°C in the
(§10) incubation mixture). After incubation, TTR-bound and free T4 were separated on a Bio-Gel P-6DG
(§11) column. The eluate was added to assay medium after which TRβ CALUX cells were exposed for 24 h
(§12) For this TRβ CALUX exposure, serum-free assay medium was used.
(§13) wells plates in assay medium, and exposed for 48h to a serial dilution of the compound in triplicate
(§14) exposure, the assay medium was analysed on the ERα and AR CALUX bioassays as described
(§15) Changes in hormone levels compared to a vehicle control exposure
as §2, §3
(§16) compound for these assays, preincubations with rat liver S9 were performed. Compounds (10 μl
(§17) DMSO stock solution) were incubated for 0 h (control) or 3 h (test condition) in a total volume of 1
(§18) ml TRIS buffer in the presence of 1% (v/v) PB/BNF induced rat liver S9 mix (including NADPH and
(§19) an NADPH-regenerating system). After incubation, the reaction was stopped by the addition of ice
(§20) cold acetone, and samples were frozen to stimulate protein precipitation. After thawing, the
(§21) precipitated protein fraction was subsequently removed by centrifugation. The supernatant, cont aining
(§22) the metabolites and any remaining non-metabolised parent compound, was concentrated under a
(§23) gentle nitrogen flow. After evaporating to dryness, the sample was taken up in 50 μl DMSO followed
(§24) by the addition of 50 μl TRIS buffer. This extract was used for the exposure of the hTPO inhibition,
as §4, §5, §6, §7, §8
(§25) effect concentrations (LOECs) and PC50 concentrations were determined; LOEC is defined as the
(§26) maximum reference compound activity for agonist assays, and 20% of the maximum reference
(§27) compound activity for antagonist assays. The PC50 is defined as the concentration where the activity
(§28) of the sample equals 50% of the maximum activity of the assay’s reference compound.
(§29) the test compound was divided by the amount of estrogens and androgens produced by the solvent
(§30) control-exposed cells. A sample was considered ‘active’ if it decreased the hormone production 0.8-

[4] = tested on: H295R cells; conditions: reference: Forskolin (↑), prochloraz (↓); remark: listed apart in the source
Description: as §1
was measured on a Berthold luminometer.
as §9, §10, §11, §12, §13, §14, §15, §2, §3, §16, §17, §18, §19, §20, §21, §22, §23, §24, §4, §5, §6, §7, §8, §25, §26, §27, §28, §29, §30

[5] = target: Transthyretin (TTR) (Homo sapiens, UniProt P02766); conditions: reference
Description: DMSO (1% compound stock in incubation mixture). The incubation mixture was transferred to 96 -
was measured on a Berthold luminometer.
as §9, §10, §11
(see CALUX bioassays). For this TRβ CALUX exposure, serum-free assay medium was used.

[6] = tested on: HepG2 cells; test: cells; type: cell-based

Cn1cc[nH]c1=S [Methimazole, reference compound]
hTPO inhibition (thyroid) LOEC, reference compound [1]: −6.3 Log M

CC1=C[C@H]2O[C@@H]3[C@H](O)C[C@](C)([C@@]2(CO)[C@H](O)C1=O)[C@]31CO1 [Deoxynivalenol, reference compound]
Anti-TRß antithyroid LOEC, reference compound [2]: −6.9 Log M

C=C[C@@]1(C)CC(=O)[C@]2(O)[C@@]3(C)[C@@H](O)CCC(C)(C)[C@@H]3[C@H](O)[C@H](OC(C)=O)[C@@]2(C)O1 [Forskolin, reference compound]
Steroidogenesis (ERα) 17β-estradiol LOEC, reference compound [3]: −6.0 Log M | Steroidogenesis (AR) Testosterone LOEC, reference compound [4]: −6.0 Log M

CCCN(CCOc1c(Cl)cc(Cl)cc1Cl)C(=O)n1ccnc1 [prochloraz, reference compound]
Steroidogenesis (ERα) 17β-estradiol LOEC, reference compound [3]: −6.0 Log M | Steroidogenesis (AR) Testosterone LOEC, reference compound [4]: −6.0 Log M

CC(C)(c1cc(Br)c(O)c(Br)c1)c1cc(Br)c(O)c(Br)c1 [Tetrabromobisphenol A, reference compound]
TTR binding (thyroid) LOEC, reference compound [5]: −7.9 Log M

C=C(C)[C@H]1Cc2c(ccc3c2O[C@@H]2COc4cc(OC)c(OC)cc4[C@@H]2C3=O)O1 [Rotenone, reference compound]
Cellular ATP: MEC ([6]; HepG2, 24 h): < 0.04 µM | LDH release: MEC ([6]; HepG2, 24 h): 0.138 µM | Mitochondrial membrane potential: MEC ([6]; HepG2, 24 h): 0.00254 µM | Oxidative stress (ROS): MEC ([6]; HepG2, 24 h): 0.681 µM | Seahorse assay: Extracellular acidification rate (ECAR): MEC ([6]; HepG2, 24 h): 0.00546 µM | Seahorse assay: oxygen consumption rate (OCR): MEC ([6]; HepG2, 24 h): 0.000832 µM | Seahorse assay: reserve capacity: MEC ([6]; HepG2, 24 h): 0.000657 µM | AC50 ([6]; Homo sapiens, HepG2, 24 h, read-out: Cellular ATP: AC50): 3.05 µM | AC50 ([6]; Homo sapiens, HepG2, 24 h, read-out: LDH release: AC50): 57.6 µM | AC50 ([6]; Homo sapiens, HepG2, 24 h, read-out: Mitochondrial membrane potential: AC50): 0.094 µM | AC50 ([6]; Homo sapiens, HepG2, 24 h, read-out: Oxidative stress (ROS): AC50): > 100 µM | AC50 ([6]; Homo sapiens, HepG2, 24 h, read-out: Seahorse assay: Extracellular acidification rate (ECAR): AC50): 0.00549 µM | AC50 ([6]; Homo sapiens, HepG2, 24 h, read-out: Seahorse assay: oxygen consumption rate (OCR): AC50): 0.00432 µM | AC50 ([6]; Homo sapiens, HepG2, 24 h, read-out: Seahorse assay: reserve capacity: AC50): 0.00248 µM

CN[C@H]1CC[C@@H](c2ccc(Cl)c(Cl)c2)c2ccccc21 [Sertraline, reference compound]
ER stress panel 2: PERK: Effect [6]: increase | Phospholipidosis: Effect [6]: increase | Steatosis: Effect [6]: increase | AC50 ([6]; Homo sapiens, HepG2, 24 h, read-out: ER stress panel 2: PERK: AC50): > 6.25 µM | ER stress panel 2: PERK: MEC ([6]; human, 24 h): 2.17 µM | Phospholipidosis: Fold increase ([6]; human, 24 h): 4.16 | Phospholipidosis: MEC ([6]; human, 24 h): 0.0965 µM | Steatosis: Fold increase ([6]; human, 24 h): 2.02 | Steatosis: MEC ([6]; human, 24 h): 8.36 µM

CC(=O)N(O)CCCCCNC(=O)CCC(=O)N(O)CCCCCNC(=O)CCC(=O)N(O)CCCCCN.CS(=O)(=O)O [Deferoxamine mesylate salt, reference compound]
Inflammation & pH: HIF1α: Effect [6]: increase | Inflammation & pH: HIF1α: MEC [6]: 6.2 µM | Inflammation & pH: ICAM-1: Effect [6]: increase | Inflammation & pH: ICAM-1: MEC [6]: 17.4 µM | Inflammation & pH: intracellular pH: Effect [6]: increase | Inflammation & pH: intracellular pH: MEC [6]: 6.46 µM | AC50 ([6]; HepG2, 24 h, read-out: Inflammation & pH: HIF1α: AC50): 4.31 µM | AC50 ([6]; HepG2, 24 h, read-out: Inflammation & pH: ICAM-1: AC50): > 200 µM | AC50 ([6]; HepG2, 24 h, read-out: Inflammation & pH: intracellular pH: AC50): > 200 µM
